Values quoted from earlier work in publication PMC7998926 (Microorganisms, 2021).

Test system: MARV
Conditions: mouse, in vivo; cited from earlier work

Q: With CC(C)COCC(CN(Cc1ccccc1)c1ccccc1)N1CCCC1 (stereo not shown) [Bepridil] as the molecule, how does the protection read?
A: strongly protected
